In patent US12077503B2, “Substituted cyclic amides and their use as herbicides” (FMC CORPORATION, priority 2015, dated 2024):

Experiments:
Type in all cases: in vivo
Kochia (Kochia scoparia) [1] = test: Test A preemergence; settings: Bassia scoparia, pre-emergence, 240 h, preemergence, read-out: Kochia plant response rating; for pest or weed control at 125 g/ha: 125 g ai/ha, 0 to 100 scale where 0 is no effect and 100 is complete control; for pest or weed control at 500 g/ha: 500 g ai/ha, visual injury rating about 10 d after treatment, 0 to 100 scale (0 no effect, 100 complete control)
In short: (§1)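 Preemergence soil spray on seeded pots or post-emergence spray on 1–2 leaf plants, in loam–sand blend. Greenhouse ~10 d. Visual rating 0–100 against untreated plants.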

[2] = test system: giant foxtail (Setaria faberii); test: Test A preemergence; settings: Setaria faberi, pre-emergence, 240 h, preemergence, read-out: Foxtail, Giant plant response rating; for pest or weed control at 125 g/ha: 125 g ai/ha, 0 to 100 scale where 0 is no effect and 100 is complete control; for pest or weed control at 500 g/ha: 500 g ai/ha, visual injury rating about 10 d after treatment, 0 to 100 scale (0 no effect, 100 complete control)
In short: as §1

[3] = test system: pigweed (Amaranthus retroflexus); test: Test A preemergence; settings: Amaranthus retroflexus, pre-emergence, 240 h, preemergence, read-out: Pigweed plant response rating; for pest or weed control at 125 g/ha: 125 g ai/ha, 0 to 100 scale where 0 is no effect and 100 is complete control; for pest or weed control at 500 g/ha: 500 g ai/ha, visual injury rating about 10 d after treatment, 0 to 100 scale (0 no effect, 100 complete control)
[4] = test system: ryegrass, Italian (Italian ryegrass, Lolium multiflorum); test: Test A preemergence; settings: Lolium multiflorum, pre-emergence, 240 h, preemergence, read-out: Ryegrass, Italian plant response rating; for pest or weed control at 500 g/ha: 500 g ai/ha, visual injury rating about 10 d after treatment, 0 to 100 scale (0 no effect, 100 complete control)
In short: as §1

[5] = test system: ragweed (common ragweed, Ambrosia elatior); test: Test A preemergence; settings: Ambrosia artemisiifolia, pre-emergence, 240 h, preemergence, read-out: Ragweed plant response rating; for pest or weed control at 500 g/ha: 500 g ai/ha, visual injury rating about 10 d after treatment, 0 to 100 scale (0 no effect, 100 complete control)
In short: as §1

[6] = test system: barnyardgrass (Echinochloa crus-galli); test: Test A preemergence; settings: Echinochloa crus-galli, pre-emergence, 240 h, preemergence, read-out: Barnyardgrass plant response rating; for pest or weed control at 125 g/ha: 125 g ai/ha, 0 to 100 scale where 0 is no effect and 100 is complete control; for pest or weed control at 500 g/ha: 500 g ai/ha, visual injury rating about 10 d after treatment, 0 to 100 scale (0 no effect, 100 complete control)
In short: as §1

Kochia (Kochia scoparia) [7] = test: Test A postemergence; settings: Bassia scoparia, post-emergence, 240 h, 125 g ai/ha, Postemergence; visual injury after approximately 10 d; 0 to 100 scale where 0 is no effect and 100 is complete control; read-out: Plant response rating, Kochia
In short: as §1

[8] = test system: pigweed (Amaranthus retroflexus); test: Test A postemergence; settings: Amaranthus retroflexus, post-emergence, 240 h, 125 g ai/ha, Postemergence; visual injury after approximately 10 d; 0 to 100 scale where 0 is no effect and 100 is complete control; read-out: Plant response rating, Pigweed
In short: as §1

[9] = test system: barnyardgrass (Echinochloa crus-galli); test: Test A postemergence; settings: Echinochloa crus-galli, post-emergence, 240 h, 125 g ai/ha, Postemergence; visual injury after approximately 10 d; 0 to 100 scale where 0 is no effect and 100 is complete control; read-out: Plant response rating, Barnyardgrass
In short: as §1

[10] = test system: blackgrass (Alopecurus myosuroides); test: Test A postemergence; settings: Alopecurus myosuroides, post-emergence, 240 h, 125 g ai/ha, Postemergence; visual injury after approximately 10 d; 0 to 100 scale where 0 is no effect and 100 is complete control; read-out: Plant response rating, Blackgrass
In short: as §1

[11] = test system: sedge, umbrella (small-flower umbrella sedge, Cyperus difformis); test: Test B flooded paddy test; settings: Cyperus difformis, Flood, 250 g ai/ha; scale of 0 to 100 where 0 is no effect and 100 is complete control; read-out: Sedge, Umbrella plant response rating
In short: (§2)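 Response scored visually against untreated controls, 0 = no effect and 100 = complete control, 13–15 d after treatment in the greenhouse. Compounds added to paddy water held 3 cm above soil surface. Treatment given at 2-leaf stage.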

rice (Oryra sativa) = test: Test B flooded paddy test; settings: Oryza sativa, Flood, 250 g ai/ha; scale of 0 to 100 where 0 is no effect and 100 is complete control; read-out: Rice plant response rating
In short: as §2

[12] = test system: ducksalad (Heteranthera limosa); test: Test B flooded paddy test; settings: Heteranthera limosa, Flood, 250 g ai/ha; scale of 0 to 100 where 0 is no effect and 100 is complete control; read-out: Ducksalad plant response rating
In short: as §2

[13] = test system: barnyardgrass (Echinochloa crus-galli); test: Test B flooded paddy test; settings: Echinochloa crus-galli, Flood, 250 g ai/ha; scale of 0 to 100 where 0 is no effect and 100 is complete control; read-out: Barnyardgrass plant response rating
In short: as §2

[14] = 125 g ai/ha, 0 to 100 scale where 0 is no effect and 100 is complete control

SMILES | pest or weed control at 125 g/ha (Kochia (Kochia scoparia) [1]) | pest or weed control at 500 g/ha (Kochia (Kochia scoparia) [1]) | pest or weed control at 125 g/ha [2] | pest or weed control at 500 g/ha [2] | pest or weed control at 125 g/ha [3] | pest or weed control at 500 g/ha [3] | pest or weed control at 125 g/ha [4, 14] | pest or weed control at 500 g/ha [4] | pest or weed control at 125 g/ha [5, 14] | pest or weed control at 500 g/ha [5] | pest or weed control at 125 g/ha [6] | pest or weed control at 500 g/ha [6] | pest or weed control at 125 g/ha (Kochia (Kochia scoparia) [7]) | pest or weed control at 125 g/ha [8] | pest or weed control at 125 g/ha [9] | pest or weed control at 125 g/ha [10] | pest or weed control at 250 g/ha [11] | pest or weed control at 250 g/ha (rice (Oryra sativa)) | pest or weed control at 250 g/ha [12] | pest or weed control at 250 g/ha [13]
Cc1cc([C@H]2CN(C)C(=O)[C@@H]2C(=O)Nc2ccccc2F)ccc1Cl [Compound 928] | 80% | 80% | 90% | 90% | 0% | 20% | 40% | 70% | 0% | 0% | 90% | 90% | 40% | 20% | 90% | 30% | 0% | 0% | 80% | 55%
Cc1cc([C@H]2CN(C)C(=O)[C@@H]2C(=O)Nc2ccc(F)cc2F)ccc1Cl [Compound 930] | 70% | 90% | 90% | 90% | 20% | 30% |  | 70% |  | 0% | 90% | 90% | 20% | 30% | 80% | 20% | 0% | 0% | 80% | 50%
CN1C[C@H](c2ccc(C(F)(F)F)cc2)[C@@H](C(=O)Nc2ccc(F)cc2Br)C1=O [Compound 934] | 50% | 80% | 90% | 90% | 0% | 80% |  | 60% |  | 30% | 70% | 90% | 20% | 20% | 60% | 0% | 0% | 0% | 60% | 0%
Cc1cc(F)ccc1NC(=O)[C@H]1C(=O)N(C)C[C@@H]1c1ccc(C(F)(F)F)cc1 [Compound 936] | 60% | 90% | 90% | 90% | 20% | 80% |  | 70% |  | 50% | 70% | 90% | 20% | 20% | 60% | 30% | 0% | 0% | 85% | 0%
Cc1cccc(NC(=O)[C@H]2C(=O)N(C)C[C@@H]2c2ccc(C(F)(F)F)cc2)c1F [Compound 939] | 30% | 60% | 90% | 90% | 0% | 0% |  | 20% |  | 50% | 90% | 90% | 0% | 0% | 80% | 0% | 0% | 0% | 40% | 0%
Cc1cccc(NC(=O)[C@H]2C(=O)N(C)C[C@@H]2c2ccc(C(F)(F)F)cc2)c1C [Compound 941] | 0% | 0% | 90% | 90% | 0% | 0% |  | 0% |  | 30% | 80% | 90% | 0% | 0% | 50% | 0% | 0% | 0% | 35% | 0%
CN1C[C@H](c2ccc(C(F)(F)F)cc2)[C@@H](C(=O)Nc2ccc(F)cc2C(F)(F)F)C1=O [Compound 942] | 70% | 90% | 90% | 90% | 80% | 90% |  | 20% |  | 50% | 70% | 90% | 30% | 70% | 60% | 70% | 0% | 0% | 40% | 0%
